Key:
human recombinant HDAC1 = target: T1, human recombinant HDAC1 (Homo sapiens, UniProt Q13547); experiment: HDAC1 enzyme activity inhibition test (HDAC Fluorometric Drug Discovery Kit); format: biochemical; details: 30° C., 60 minutes, 10 μM substrate
T1 construct: purchased Enzo Life Science BML-SE456
In short: (§1)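 IC50 derived from fluorescence (Ex 360, Em 460) following 30 min development with Developer II. Each reaction held 0.3 μg human recombinant HDAC1 or HDAC6, 10 μM Fluor de Lys SIRT1 substrate and 5-fold serially diluted compound, incubated 60 min at 30 °C.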

human recombinant HDAC6 = target: T2, human recombinant HDAC6 (Homo sapiens, UniProt Q9UBN7); experiment: HDAC6 enzyme activity inhibition test (HDAC Fluorometric Drug Discovery Kit); format: biochemical; details: for HDAC6 selectivity (fold): HDAC6 over HDAC1; for IC50: human recombinant HDAC6, same protocol as HDAC1
T2 construct: purchased Calbiochem 382180
T2 sequence (Q9UBN7 1-1215): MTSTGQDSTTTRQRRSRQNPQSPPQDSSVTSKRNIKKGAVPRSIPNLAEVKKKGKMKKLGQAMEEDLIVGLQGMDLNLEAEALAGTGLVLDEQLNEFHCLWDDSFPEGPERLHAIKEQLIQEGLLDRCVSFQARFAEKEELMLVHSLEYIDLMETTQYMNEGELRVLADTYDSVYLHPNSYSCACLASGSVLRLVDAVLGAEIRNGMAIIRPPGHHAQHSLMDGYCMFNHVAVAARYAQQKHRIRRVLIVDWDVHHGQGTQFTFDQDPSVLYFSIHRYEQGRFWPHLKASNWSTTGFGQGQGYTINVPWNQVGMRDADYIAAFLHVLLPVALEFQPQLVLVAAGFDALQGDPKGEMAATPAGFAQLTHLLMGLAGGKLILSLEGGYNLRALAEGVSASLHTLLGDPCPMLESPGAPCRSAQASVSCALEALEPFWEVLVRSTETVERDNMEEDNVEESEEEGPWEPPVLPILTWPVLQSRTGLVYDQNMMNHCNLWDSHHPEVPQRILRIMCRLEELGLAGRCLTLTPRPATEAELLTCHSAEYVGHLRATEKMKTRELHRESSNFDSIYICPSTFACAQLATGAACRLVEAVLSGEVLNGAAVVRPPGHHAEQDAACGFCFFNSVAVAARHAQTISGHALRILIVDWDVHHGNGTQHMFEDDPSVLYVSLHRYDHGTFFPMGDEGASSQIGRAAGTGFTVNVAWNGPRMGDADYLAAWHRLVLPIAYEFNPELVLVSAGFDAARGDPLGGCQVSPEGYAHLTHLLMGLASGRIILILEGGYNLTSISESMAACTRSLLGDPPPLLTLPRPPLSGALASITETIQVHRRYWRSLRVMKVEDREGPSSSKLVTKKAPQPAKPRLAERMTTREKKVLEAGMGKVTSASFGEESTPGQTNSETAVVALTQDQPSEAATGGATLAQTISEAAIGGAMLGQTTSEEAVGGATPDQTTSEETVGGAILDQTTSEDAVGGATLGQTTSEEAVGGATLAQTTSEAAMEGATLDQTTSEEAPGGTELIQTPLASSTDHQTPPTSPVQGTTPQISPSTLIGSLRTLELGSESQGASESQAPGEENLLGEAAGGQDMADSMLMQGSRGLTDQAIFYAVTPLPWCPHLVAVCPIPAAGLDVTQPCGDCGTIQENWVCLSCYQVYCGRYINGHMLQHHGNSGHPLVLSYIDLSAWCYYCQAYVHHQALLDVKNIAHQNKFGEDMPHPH
In short: as §1

T1 sequence (Q13547 whole entry): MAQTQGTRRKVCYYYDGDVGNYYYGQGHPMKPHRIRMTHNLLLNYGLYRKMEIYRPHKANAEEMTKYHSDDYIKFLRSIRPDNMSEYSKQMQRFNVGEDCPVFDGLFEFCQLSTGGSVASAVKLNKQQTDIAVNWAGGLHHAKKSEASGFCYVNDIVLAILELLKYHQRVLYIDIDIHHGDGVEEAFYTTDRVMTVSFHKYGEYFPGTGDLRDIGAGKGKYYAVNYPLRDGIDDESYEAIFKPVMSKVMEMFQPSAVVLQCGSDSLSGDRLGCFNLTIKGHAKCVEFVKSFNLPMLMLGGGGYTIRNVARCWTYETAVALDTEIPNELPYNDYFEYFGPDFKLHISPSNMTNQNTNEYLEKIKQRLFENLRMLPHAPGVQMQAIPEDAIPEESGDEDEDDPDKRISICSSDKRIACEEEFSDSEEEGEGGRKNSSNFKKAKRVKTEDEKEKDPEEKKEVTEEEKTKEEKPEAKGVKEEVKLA

Row | IC50 (human recombinant HDAC1) | HDAC6 selectivity (fold) (human recombinant HDAC6) | IC50 (human recombinant HDAC6) | SMILES
1 | > 50000 nM | 1188 fold | 42.1 nM | FC(F)c1nnc(-c2ccc(Cn3nc(-c4cccc(N5CCN(C6CCCC6)CC5)n4)oc3=S)nc2)o1 [Compound 102, 5-[6-(4-cyclopentylpiperazin-1-yl)-2-pyridyl]-3-[[5-[5-(difluoromethyl)-1,3,4-oxadiazol-2-yl]-2-pyridyl]methyl]-1,3,4-oxadiazol-2-thione]
2 | > 50000 nM | 1302 fold | 38.4 nM | CCN1CCN(c2cccc(-c3nn(Cc4ncc(-c5nnc(C(F)F)o5)cc4F)c(=S)o3)n2)CC1 [Compound 103, 3-[[5-[5-(difluoromethyl)-1,3,4-oxadiazol-2-yl]-3-fluoro-2-pyridyl]methyl]-5-[6-(4-ethylpiperazin-1-yl)-2-pyridyl]-1,3,4-oxadiazol-2-thione]
3 | > 50000 nM | 1163 fold | 43 nM | CC(C)N1CCN(c2cccc(-c3nn(Cc4ncc(-c5nnc(C(F)F)o5)cc4F)c(=S)o3)n2)CC1 [Compound 104, 3-[[5-[5-(difluoromethyl)-1,3,4-oxadiazol-2-yl]-3-fluoro-2-pyridyl]methyl]-5-[6-(4-isopropylpiperazin-1-yl)-2-pyridyl]-1,3,4-oxadiazol-2-thione]
4 | > 50000 nM | 734 fold | 68.1 nM | CC(C)N1CCN(c2cc(-c3nn(Cc4ccc(-c5nnc(C(F)F)o5)cn4)c(=S)o3)ccn2)CC1 [Compound 105, 3-[[5-[5-(difluoromethyl)-1,3,4-oxadiazol-2-yl]-2-pyridyl]methyl]-5-[2-(4-isopropylpiperazin-1-yl)-4-pyridyl]-1,3,4-oxadiazol-2-thione]
5 | > 50000 nM | 639 fold | 78.2 nM | FC(F)c1nnc(-c2ccc(Cn3nc(-c4ccnc(N5CCN(C6CCCC6)CC5)c4)oc3=S)nc2)o1 [Compound 106, 5-[2-(4-cyclopentylpiperazin-1-yl)-4-pyridyl]-3-[[5-[5-(difluoromethyl)-1,3,4-oxadiazol-2-yl]-2-pyridyl]methyl]-1,3,4-oxadiazol-2-thione]
6 | > 50000 nM | 1163 fold | 43 nM | CN(C)Cc1ccc(-c2nn(Cc3ncc(-c4nnc(C(F)F)o4)cc3F)c(=S)o2)cc1 [Compound 107, 3-[[5-[5-(difluoromethyl)-1,3,4-oxadiazol-2-yl]-3-fluoro-2-pyridyl]methyl]-5-[4-[(dimethylamino)methyl]phenyl]-1,3,4-oxadiazol-2-thione]
7 | > 50000 nM | 1475 fold | 33.9 nM | CNCc1ccc(-c2nn(Cc3ncc(-c4nnc(C(F)F)o4)cc3F)c(=S)o2)cc1 [Compound 108, 3-[[5-[5-(difluoromethyl)-1,3,4-oxadiazol-2-yl]-3-fluoro-2-pyridyl]methyl]-5-[4-(methylaminomethyl)phenyl]-1,3,4-oxadiazol-2-thione]
8 | > 50000 nM | 1020 fold | 49 nM | CCN(CC)Cc1ccc(-c2nn(Cc3ncc(-c4nnc(C(F)F)o4)cc3F)c(=S)o2)cc1 [Compound 109, 5-[4-(diethylaminomethyl)phenyl]-3-[[5-[5-(difluoromethyl)-1,3,4-oxadiazol-2-yl]-3-fluoro-2-pyridyl]methyl]-1,3,4-oxadiazol-2-thione]
9 | > 50000 nM | 919 fold | 54.4 nM | Fc1cc(-c2nnc(C(F)F)o2)cnc1Cn1nc(-c2ccc(CN3CC(F)C3)cc2)oc1=S [Compound 110, 3-[[5-[5-(difluoromethyl)-1,3,4-oxadiazol-2-yl]-3-fluoro-2-pyridyl]methyl]-5-[4-[(3-fluoroazetidine-1-yl)methyl]phenyl]-1,3,4-oxadiazol-2-thione]
10 | > 50000 nM | 549 fold | 91 nM | CC1CCN(Cc2ccc(-c3nn(Cc4ncc(-c5nnc(C(F)F)o5)cc4F)c(=S)o3)cc2)CC1 [Compound 111, 3-[[5-[5-(difluoromethyl)-1,3,4-oxadiazol-2-yl]-3-fluoro-2-pyridyl]methyl]-5-[4-[(4-methyl-1-piperidyl)methyl]phenyl]-1,3,4-oxadiazol-2-thione]
11 | > 50000 nM | 980 fold | 51 nM | Fc1cc(-c2nnc(C(F)F)o2)cnc1Cn1nc(-c2ccc(CN3CCCCC3)cc2)oc1=S [Compound 112, 3-[[5-[5-(difluoromethyl)-1,3,4-oxadiazol-2-yl]-3-fluoro-2-pyridyl]methyl]-5-[4-(1-piperidylmethyl)phenyl]-1,3,4-oxadiazol-2-thione]
12 | > 50000 nM | 778 fold | 64.3 nM | Fc1cc(-c2nnc(C(F)F)o2)cnc1Cn1nc(-c2ccc(CN3CC[C@@H](F)C3)cc2)oc1=S [Compound 113, 3-[[5-[5-(difluoromethyl)-1,3,4-oxadiazol-2-yl]-3-fluoro-2-pyridyl]methyl]-5-[4-[[(3R)-3-fluoropyrrolidin-1-yl]methyl]phenyl]-1,3,4-oxadiazol-2-thione]
13 | > 50000 nM | 824 fold | 60.7 nM | Fc1cc(-c2nnc(C(F)F)o2)cnc1Cn1nc(-c2ccc(CN3CC[C@H](F)C3)cc2)oc1=S [Compound 114, 3-[[5-[5-(difluoromethyl)-1,3,4-oxadiazol-2-yl]-3-fluoro-2-pyridyl]methyl]-5-[4-[[(3S)-3-fluoropyrrolidin-1-yl]methyl]phenyl]-1,3,4-oxadiazol-2-thione]
14 | > 50000 nM | 483 fold | 104 nM | CN1CCC(c2cc(-c3nn(Cc4ccc(-c5nnc(C(F)F)o5)cn4)c(=S)o3)ccc2F)CC1 [Compound 115, 3-[[5-[5-(difluoromethyl)-1,3,4-oxadiazol-2-yl]-2-pyridyl]methyl]-5-[4-fluoro-3-(1-methyl-4-piperidyl)phenyl]-1,3,4-oxadiazol-2-thione]
15 | > 50000 nM | 429 fold | 116 nM | CC(C)N1CCC(c2cc(-c3nn(Cc4ccc(-c5nnc(C(F)F)o5)cn4)c(=S)o3)ccc2F)CC1 [Compound 116, 3-[[5-[5-(difluoromethyl)-1,3,4-oxadiazol-2-yl]-2-pyridyl]methyl]-5-[4-fluoro-3-(1-isopropyl-4-piperidyl)phenyl]-1,3,4-oxadiazol-2-thione]
16 | > 50000 nM | 675 fold | 74.1 nM | CN(C)Cc1cccc(-c2nn(Cc3ncc(-c4nnc(C(F)F)o4)cc3F)c(=S)o2)c1 [Compound 117, 3-[[5-[5-(difluoromethyl)-1,3,4-oxadiazol-2-yl]-3-fluoro-2-pyridyl]methyl]-5-[3-[(dimethylamino)methyl]phenyl]-1,3,4-oxadiazol-2-thione]
17 | > 50000 nM | 742 fold | 67.4 nM | Fc1cc(-c2nnc(C(F)F)o2)cnc1Cn1nc(-c2cccc(CN3CCC3)c2)oc1=S [Compound 118, 5-[3-(azetidine-1-ylmethyl)phenyl]-3-[[5-[5-(difluoromethyl)-1,3,4-oxadiazol-2-yl]-3-fluoro-2-pyridyl]methyl]-1,3,4-oxadiazol-2-thione]
18 | > 50000 nM | 590 fold | 84.8 nM | Fc1cc(-c2nnc(C(F)F)o2)cnc1Cn1nc(-c2cccc(CN3CCCCC3)c2)oc1=S [Compound 119, 3-[[5-[5-(difluoromethyl)-1,3,4-oxadiazol-2-yl]-3-fluoro-2-pyridyl]methyl]-5-[3-(1-piperidylmethyl)phenyl]-1,3,4-oxadiazol-2-thione]
19 | > 50000 nM | 630 fold | 79.5 nM | CCN(CC)Cc1cccc(-c2nn(Cc3ncc(-c4nnc(C(F)F)o4)cc3F)c(=S)o2)c1 [Compound 120, 5-[3-(diethylaminomethyl)phenyl]-3-[[5-[5-(difluoromethyl)-1,3,4-oxadiazol-2-yl]-3-fluoro-2-pyridyl]methyl]-1,3,4-oxadiazol-2-thione]

— patent publication US20260327214A1, “1,3,4-OXADIAZOLE DERIVATIVE COMPOUNDS AS HISTONE DEACETYLASE 6 INHIBITOR, AND USES THEREOF” (CHONG KUN DANG PHARMACEUTICAL CORP., priority 2022, published 2026)
